Measurements: patent publication US9403832B2, “Pyrazolo[1,5-a]pyrimidine-based compounds, compositions comprising them, and methods of their use” (Lexicon Pharmaceuticals, Inc., priority 2012, dated 2016)

What was measured:
AAK1 [1] = biological target: T1, AAK1 (Homo sapiens, UniProt Q2M2I8); assay: HEK281 cell-based assay (CBA); details: HEK293F cells transfected with full length human AAK1 and AP2M1; phospho-mu2 Western blot; 3 hours incubation
T1 construct: NP_055726.2
Procedure: HEK293F cells were cultured in media containing DMEM (Gibco, cat. #11965), 10% FBS (SAFC Biosciences, cat. #12103C), 1× GPS (glutamine, penicillin and streptomycin). On day one, cells were plated on a 10 cm dish so that they are ˜80% confluent at time of transfection. Roughly 12 million cells were in a 10 cm dish at time of transfection. On day two, each dish was transfected with 48 ug DNA and 144 ul Lipofectamine 2000 (Invitrogen, cat. #11668-019). The DNA was comprised of a mixture (per 10 cm dish) containing 3 ug AAK1/HA/pIRES (full length human, NCBI accession no. NP_055726.2), 45 μg Flag/AP2MI/pcDNA (full length human), and 1.5 ml OPTI-MEM. The Lipofectamine 2000 is made up of a mixture (per 10 cm dish) containing 144 μl Lipofectamine 2000 and 1.5 ml OPTI-MEM. Each mixture was transferred to individual 15 ml tubes and incubated at RT for 5 minutes, and then the two mixes were combined and incubated at RT for 20 minutes.
Growth media was then aspirated from each 10 cm plate and replaced with 10 ml of DMEM+10% FBS (no GPS). Finally, 3 ml DNA/Lipofectamine mix was added to each 10 cm dish and mix gently followed by incubate of plate overnight at 37° C. and 5% CO2.
On day three, compounds were diluted in 100% DMSO at 1000× final concentration, followed by 3-fold serial dilutions for a total of 5 concentrations tested. Four compounds were tested per 10 cm dish. One ul of each compound dilution was then pipetted into a deep-well, 96-well plate, followed by addition of 500 μl DMEM+0.5% FBS into each well for a 2× final concentration of each compound. Cells were resuspended in a 10 cm dish by simple pipetting (HEK293 cells come off the plate that easy at this point) and then transferred to a 50 ml conical tube and pelleted by centrifugation at 1000 rpm for 5 min. Cell pellets were then resuspended in 2.75 ml DMEM+0.5% FBS per 10 cm dish and 100 μl of cell suspension transferred into each well of 96-well TC plate. Finally, 100 μl of 2× compound diluted in DMEM+0.5% FBS was then added into wells containing cell suspension for a 1× final concentration. Plates were then incubated at 37° C. and 5% CO2 for 3 hours followed by transferring of cell suspensions from each well into 12-tube PCR strips. The PCR strips were spun in a tip rack at 1000 rpm for 5 minutes to pellet cells and media was then removed by pipetting without disturbing the cell pellet.
To prepare for Western Blot analysis, cell pellets were resuspend in 40 ul 1× LDS-PAGE sample buffer (Invitrogen, cat.# NP0008)+2× Halt phophatase and protease inhibitor cocktail (Thermo Scientific, cat. #1861284), followed by sonicating each with microtip sonicator set at 5 for 8-10 seconds. Five ul of 10× NuPage Sample Reducing Agent (with 50 mM DTT) was to each sample followed by heat denaturing at 70 C for 10 min on PCR machine. A total of 10 μl per sample was loaded into each lane of a 4-20% Tris-Glycine Criterion 26-well gel (Biorad, cat. #345-0034) for the phospho-mu2 blot and 10 μl per lane in a 4-12% Bis-Tris (+MES buffer) NuPAGE 26-well gel (Invitrogen, cat.# WG1403BX10) for the mu2 blot. For controls, 2 ng of phospho-mu2 or 20 ng mu2/Flag proteins were loaded in the last well of each gel. After SDS-PAGE, samples on each gel were transferred to PVDF membrane using an iBlot and membranes were blocked for one hour in TBST+5% milk, followed by wash 3× for 5-10 min with TBST. Criterion gels were probed with rabbit anti-phospho-mu2 (1:5000; a rabbit polyclonal antibody produced by New England Peptide and affinity purified at Lexicon) in TBST+5% BSA, whereas, NuPAGE gels were probed with mouse anti-Flag (1:500; Sigma, cat.# F1804) in TBST+5% milk, and these primary antibodies were incubated overnight at 4° C. on a rocker.

AAK1 [2] = biological target: T1, AAK1; assay: P81 filter plate assay; assay type: biochemical; details: full-length human AAK1, Mu2 substrate, 33P-ATP
Summary of the method: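 Full-length human AAK1 (0.2 nM, 2×) was pre-incubated 10 min at RT with compounds (top concentration 96 μM in the dilution plate), then reacted 1 h at RT with full-length human Mu2 (0.2 μM, 2×), cold ATP (2 μM, 2×) and ³³P-ATP. Reactions were stopped with phosphoric acid and captured on P81 filters for scintillation counting.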

T1 sequence (Q2M2I8 1-863 isoform Q2M2I8-2): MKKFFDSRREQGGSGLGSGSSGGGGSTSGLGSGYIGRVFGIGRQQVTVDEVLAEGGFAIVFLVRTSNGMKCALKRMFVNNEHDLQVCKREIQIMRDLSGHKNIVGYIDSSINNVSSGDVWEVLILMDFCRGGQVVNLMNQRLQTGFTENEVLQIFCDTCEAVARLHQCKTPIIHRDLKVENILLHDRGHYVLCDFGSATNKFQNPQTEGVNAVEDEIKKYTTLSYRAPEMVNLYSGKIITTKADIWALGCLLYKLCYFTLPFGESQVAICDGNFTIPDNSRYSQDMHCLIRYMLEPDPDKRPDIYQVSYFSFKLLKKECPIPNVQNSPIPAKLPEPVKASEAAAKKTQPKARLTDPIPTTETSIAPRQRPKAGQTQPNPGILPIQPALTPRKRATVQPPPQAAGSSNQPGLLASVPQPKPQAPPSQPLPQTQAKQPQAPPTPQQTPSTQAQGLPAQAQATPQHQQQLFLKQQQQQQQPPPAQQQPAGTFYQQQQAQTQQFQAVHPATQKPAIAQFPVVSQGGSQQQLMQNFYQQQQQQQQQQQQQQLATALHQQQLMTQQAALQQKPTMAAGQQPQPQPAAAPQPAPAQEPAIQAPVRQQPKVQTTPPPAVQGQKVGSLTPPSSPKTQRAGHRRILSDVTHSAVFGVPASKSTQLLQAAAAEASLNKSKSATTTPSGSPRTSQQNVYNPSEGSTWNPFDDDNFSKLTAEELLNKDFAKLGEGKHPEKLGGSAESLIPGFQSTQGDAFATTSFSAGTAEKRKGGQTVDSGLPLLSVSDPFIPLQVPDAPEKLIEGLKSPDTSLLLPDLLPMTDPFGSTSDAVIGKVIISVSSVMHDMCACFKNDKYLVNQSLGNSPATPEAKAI

Compound | IC50 (AAK1 [1]) [nM] | IC50 (AAK1 [2]) [nM]
COc1ccccc1-c1cnn2ccc(N3CCN(C(=O)[C@@H](N)C(C)C)CC3)nc12 [(S)-2-amino-1-(4-(3-(2-methoxyphenyl)pyrazolo[1,5-a]pyrimidin-5-yl)piperazin-1-yl)-3-methylbutan-1-one] | ≤ 10 | ≤ 10
COc1ncccc1-c1cnn2ccc(N3CCN(C(=O)[C@@H](N)C(C)(C)C)CC3)nc12 [(S)-2-amino-1-(4-(3-(2-methoxypyridin-3-yl)pyrazolo[1,5-a]pyrimidin-5-yl)piperazin-1-yl)-3,3-dimethylbutan-1-one] | ≤ 10 | ≤ 10
COc1ncccc1-c1cnn2ccc(N3CCN(C(=O)[C@@H](N)C(C)C)CC3)nc12 [(S)-2-amino-1-(4-(3-(2-methoxypyridin-3-yl)pyrazolo[1,5-a]pyrimidin-5-yl)piperazin-1-yl)-3-methylbutan-1-one] | ≤ 10 | ≤ 10
COc1ncccc1-c1cnn2ccc(N3CCN(C(=O)[C@@H](N)CC(C)C)CC3)nc12 [(S)-2-amino-1-(4-(3-(2-methoxypyridin-3-yl)pyrazolo[1,5-a]pyrimidin-5-yl)piperazin-1-yl)-4-methylpentan-1-one] | ≤ 10 | ≤ 10
CC(C)[C@H](N)C(=O)N1CCN(c2ccn3ncc(-c4cccc(F)c4)c3n2)CC1 [(S)-2-amino-1-(4-(3-(3-fluorophenyl)pyrazolo[1,5-a]pyrimidin-5-yl)piperazin-1-yl)-3-methylbutan-1-one] | ≤ 10 | ≤ 10
CC(C)[C@H](N)C(=O)N1CCN(c2ccn3ncc(-c4ccc(F)cc4)c3n2)CC1 [(S)-2-amino-1-(4-(3-(4-fluorophenyl)pyrazolo[1,5-a]pyrimidin-5-yl)piperazin-1-yl)-3-methylbutan-1-one] | ≤ 10 | ≤ 10
COc1ccc(F)cc1-c1cnn2ccc(N3CCN(C(=O)[C@@H](N)C(C)(C)C)CC3)nc12 [(S)-2-amino-1-(4-(3-(5-fluoro-2-methoxyphenyl)pyrazolo[1,5-a]pyrimidin-5-yl)piperazin-1-yl)-3,3-dimethylbutan-1-one] | ≤ 10 | ≤ 10
COc1ccc(F)cc1-c1cnn2ccc(N3CCN(C(=O)[C@@H](N)C(C)C)CC3)nc12 [(S)-2-amino-1-(4-(3-(5-fluoro-2-methoxyphenyl)pyrazolo[1,5-a]pyrimidin-5-yl)piperazin-1-yl)-3-methylbutan-1-one] | ≤ 10 | ≤ 10
COc1ccc(F)cc1-c1cnn2ccc(N3CCN(C(=O)[C@@H](N)CC(C)C)CC3)nc12 [(S)-2-amino-1-(4-(3-(5-fluoro-2-methoxyphenyl)pyrazolo[1,5-a]pyrimidin-5-yl)piperazin-1-yl)-4-methylpentan-1-one] | ≤ 10 | ≤ 10
CC(C)(C)[C@H](N)C(=O)N1CCN(c2ccn3ncc(-c4ccccc4)c3n2)CC1 [(S)-2-amino-3,3-dimethyl-1-(4-(3-phenylpyrazolo[1,5-a]pyrimidin-5-yl)piperazin-1-yl)butan-1-one] | ≤ 100 | ≤ 10
COC[C@H](N)C(=O)N1CCN(c2ccn3ncc(-c4cccnc4OC)c3n2)CC1 [(S)-2-amino-3-methoxy-1-(4-(3-(2-methoxypyridin-3-yl)pyrazolo[1,5-a]pyrimidin-5-yl)piperazin-1-yl)propan-1-one] | ≤ 10 | ≤ 10
CC(C)[C@H](N)C(=O)N1CCN(c2ccn3ncc(-c4ccccc4)c3n2)CC1 [(S)-2-amino-3-methyl-1-(4-(3-phenylpyrazolo[1,5-a]pyrimidin-5-yl)piperazin-1-yl)butan-1-one] | ≤ 10 | ≤ 10
CC(C)C[C@H](N)C(=O)N1CCN(c2ccn3ncc(-c4ccccc4)c3n2)CC1 [(S)-2-amino-4-methyl-1-(4-(3-phenylpyrazolo[1,5-a]pyrimidin-5-yl)piperazin-1-yl)pentan-1-one] | ≤ 10 | ≤ 10
COc1ncccc1-c1cnn2ccc(N3CC[C@H](N(C)C(=O)[C@@H](N)CC(C)C)C3)nc12 [(S)-2-amino-N-((S)-1-(3-(2-methoxypyridin-3-yl)pyrazolo[1,5-a]pyrimidin-5-yl)pyrrolidin-3-yl)-N,4-dimethylpentanamide] | ≤ 10 | ≤ 10

Continued, values first:

IC50 (AAK1 [1]) [nM] | IC50 (AAK1 [2]) [nM] | Compound
≤ 100 | ≤ 10 | COc1ncccc1-c1cnn2ccc(N3CCN(C(=O)[C@@H]4CCCN4)CC3)nc12 [(S)-(4-(3-(2-methoxypyridin-3-yl)pyrazolo[1,5-a]pyrimidin-5-yl)piperazin-1-yl)(pyrrolidin-2-yl)methanone]
≤ 10 | ≤ 10 | CCOC(=O)N1CCC[C@H]1CNc1ccn2ncc(-c3ccccc3OC)c2n1 [(S)-ethyl 2-(((3-(2-methoxyphenyl)pyrazolo[1,5-a]pyrimidin-5-yl)amino)methyl)pyrrolidine-1-carboxylate]
≤ 10 | ≤ 10 | COc1ncccc1-c1cnn2ccc(N(C)C[C@@H]3CCCN3C(=O)OC(C)C)nc12 [(S)-isopropyl 2-(((3-(2-methoxypyridin-3-yl)pyrazolo[1,5-a]pyrimidin-5-yl)(methyl)amino)methyl)pyrrolidine-1-carboxylate]
≤ 10 | ≤ 10 | COc1ncccc1-c1cnn2ccc(NC[C@@H]3CCCN3C(=O)OC(C)C)nc12 [(S)-isopropyl 2-(((3-(2-methoxypyridin-3-yl)pyrazolo[1,5-a]pyrimidin-5-yl)amino)methyl)pyrrolidine-1-carboxylate]
≤ 100 | ≤ 10 | COc1nc(C)ccc1-c1cnn2ccc(N3CC[C@H](N(C)C(=O)OC(C)C)C3)nc12 [(S)-isopropyl (1-(3-(2-d3-methoxy-6-methylpyridin-3-yl)pyrazolo[1,5-a]pyrimidin-5-yl)pyrrolidin-3-yl)(methyl)carbamate]
≤ 100 | ≤ 10 | COc1ncccc1-c1cnn2ccc(N3CC[C@H](N(C)C(=O)OC(C)C)C3)nc12 [(S)-isopropyl (1-(3-(2-methoxypyridin-3-yl)pyrazolo[1,5-a]pyrimidin-5-yl)pyrrolidin-3-yl)(methyl)carbamate]
≤ 100 | ≤ 10 | COc1ccc(F)cc1-c1cnn2ccc(N3CC[C@H](N(C)C(=O)OC(C)C)C3)nc12 [(S)-isopropyl (1-(3-(5-fluoro-2-methoxyphenyl)pyrazolo[1,5-a]pyrimidin-5-yl)pyrrolidin-3-yl)(methyl)carbamate]
≤ 10 | ≤ 10 | COc1cccc(-c2cnn3ccc(NC[C@@H]4CCCN4C(=O)OC(C)(C)C)nc23)c1 [(S)-tert-butyl 2-(((3-(3-methoxyphenyl)pyrazolo[1,5-a]pyrimidin-5-yl)amino)methyl)pyrrolidine-1-carboxylate]
≤ 10 | ≤ 10 | CC(C)(C)OC(=O)N1CCC[C@H]1CNc1ccn2ncc(-c3ccc(CN)cc3)c2n1 [(S)-tert-butyl 2-(((3-(4-(aminomethyl)phenyl)pyrazolo[1,5-a]pyrimidin-5-yl)amino)methyl)pyrrolidine-1-carboxylate]
